Source: ChEMBL document CHEMBL3822405, “Binding mode prediction of aplysiatoxin, a potent agonist of protein kinase C, through molecular simulation and structure-activity study on simplified analogs of the receptor-recognition domain” (Bioorg Med Chem, 2016)

Molecular target: Protein kinase C delta type (Mus musculus, UniProt P28867)
Test: Inhibition of [3H]PDBu binding to PKCdelta C1B domain in CD-1 mouse brain cytosol incubated for 30 mins

Chain of Protein kinase C delta type (P28867 whole entry, the tested form may be a part): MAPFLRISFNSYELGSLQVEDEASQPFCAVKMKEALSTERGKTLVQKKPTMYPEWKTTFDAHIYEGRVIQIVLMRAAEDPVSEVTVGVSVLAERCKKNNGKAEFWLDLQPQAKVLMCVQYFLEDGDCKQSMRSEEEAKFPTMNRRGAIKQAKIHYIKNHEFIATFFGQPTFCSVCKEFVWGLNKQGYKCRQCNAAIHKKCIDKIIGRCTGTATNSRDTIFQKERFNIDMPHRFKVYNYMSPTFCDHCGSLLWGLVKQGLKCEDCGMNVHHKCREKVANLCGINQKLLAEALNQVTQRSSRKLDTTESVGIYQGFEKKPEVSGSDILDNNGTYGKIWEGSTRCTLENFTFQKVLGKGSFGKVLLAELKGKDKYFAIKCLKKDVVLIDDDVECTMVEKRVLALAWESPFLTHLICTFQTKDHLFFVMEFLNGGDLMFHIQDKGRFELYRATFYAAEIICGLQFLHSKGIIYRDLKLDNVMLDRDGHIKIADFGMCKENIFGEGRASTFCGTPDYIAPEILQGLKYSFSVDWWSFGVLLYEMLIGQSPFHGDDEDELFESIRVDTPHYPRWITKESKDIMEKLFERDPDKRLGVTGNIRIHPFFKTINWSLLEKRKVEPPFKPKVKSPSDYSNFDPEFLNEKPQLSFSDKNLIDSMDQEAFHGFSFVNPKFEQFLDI

| Ki [nM] | Structure (SMILES) |
| --- | --- |
| 370 | CCCCCCCCOC(=O)C[C@@H](OC(=O)CCCCCCC)[C@@H](C)O |
| > 20000 | CCCCCCCCC[C@@H](OC(=O)CCCCCCC)[C@@H](C)O |
| 2900 | CCCCCCCCOC(=O)C[C@@H](OCCCCCCCC)[C@@H](C)O |
